Where two headings read alike, the source gives them in different places.
What was measured:
A673 cells [1] = experiment: Cytotoxicity in A673 cells (Cell Titer Glo viability); type: cell-based; details: for IC50: Homo sapiens; for Ratio of Biochemical Potency:Cellular Potency: CDK12 IC50 / A673 IC50
In short: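 Cells plated at 1.2×10^5 per well in DMEM+10% FBS, 24 h, then compound series ± MLN4924 (30 nM final) in 0.1% DMSO for 72 h. Viability by Cell Titer Glo luminescence, normalised to vehicle (100%) and 0.1% Triton x-100 (0%); MLN4924 curves normalised to MLN4924-treated controls.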

Cyclin K = Cyclin K (Homo sapiens (Human), UniProt O75909); experiment: Western blotting analysis of Cyclin K depletion in cell culture; type: cell-based; details: A673 cells, 1 μM test compound, 2 hours, absence and presence of 10 μM MLN4924
Description: A673 cells were incubated for 2 hours with of 1 μM compound in presence or in absence of 10 μM of the NAE (NEDD8 activating enzyme) inhibitor MLN4924 (Cell Signalling Technologies). Cells were washed 2× with cold Phosphate Buffered Saline (PBS, Sigma Aldrich), followed by the addition of lysis buffer for 15 minutes on ice before harvesting and centrifugation.
Protein content in the cell lysate was assessed by BCA assay (Thermo Fisher). Samples were then prepared with 4× Laemmlli Buffer (Bio-Rad) and heated to 95° C. for 5 minutes. Each sample was loaded onto a Mini-PROTEAN TGX Stain Free Gel (Bio-Rad) at 50 μg protein/well. SDS-PAGE was performed and then protein was transferred onto a PVDF membrane using a Trans-Blot® Turbo™ Midi PVDF Transfer Pack (Bio-Rad. Membranes were blocked in TBS-T (Invitrogen), 5% (w/v) milk powder (Marvel) overnight at 4° C.
Membranes were incubated with anti-CCNK antibody (rabbit) primary antibody (Abcam) and anti-GAPDH antibody (rabbit) in TBS-T for 2 hours. Membranes were then washed three times with TBS-T, before incubation secondary goat anti-rabbit HRP antibody (Cell Signalling Technologies) followed by 3× washing in TBS-T. Blots were imaged using a Chemidoc imager (Bio-Rad). Cyclin K depletion was measured as the observable drop in band intensity in compound treated samples relative to proteasome-inhibitor treated samples.
Cyclin K degradation was evaluated by Western blotting for cyclin K in A673 cells exposed to 1 μM test compound for 2 hours in the absence and presence of 10 μM MLN4924 (to inhibit proteosome activity).

A673 cells [2] = experiment: A673 cytotoxic potency shift in the presence of MLN4924 (cyclin K degrader activity); type: cell-based; details: for Change of cytotoxic potency in the presence of MLN4924: 72 hours, presence and absence of 30 nM MLN4924; for Cyclin K Degrader Activity (A673 potency shift + MLN4924): 30 nM MLN4924, 72 hours
Description: Inhibition of cell viability by test compounds was assessed in A673 cells (ATCC CRL-1598) and the compound mode of action was attributed to a “molecular-glue”/cyclin K-degradation mechanism by probing for a loss of compound potency in the presence of the NEDD8-activating enzyme inhibitor, MLN4924.
Cells were plated in 96-well plates at a density of […] viable cells per well in 200 μL fully supplemented growth medium (DMEM+10% heat inactivated foetal bovine serum) and incubated for 24 hours in standard tissue culture conditions. Compounds, including MLN4924, were solubilised in DMSO and then diluted in fully supplemented growth medium at 2× their final assay concentration such that the final DMSO concentration was 0.1%. Growth medium in the assay plates was replaced with 50 μL of growth medium containing 2×MLN4924 (final assay concentration: 30 nM, where tested) or vehicle only and 50 μL of growth medium containing a 2× compound concentration series or vehicle only such that each compound was at 1× final assay concentration in 100 μL.
Cells were then incubated for 72 hours in standard tissue culture conditions before viability was assessed using 50 μL Cell Titer Glo reagent (Promega) per well and luminescence measured on an EnVision plate reader. Data were normalised to vehicle control (100%) and cells treated with 0.1% Triton x-100 for 1 hour before viability measurement (0%; full cell kill). IC50 values were determined using a semi-logistic curve fit with parameters “top” fixed at 100% and “bottom” at or below 0%. Viability curves generated in the presence of MLN4924 were normalised and fixed to controls treated with MLN4924.

Human CDK12 wt/CycK = Human CDK12 wt/CycK (Homo sapiens (Human), UniProt Q9NYV4); experiment: Radiometric protein kinase assay (33PanQinase Activity Assay), CDK12; type: biochemical; details: for CDK7/CDK12: ratio of CDK7 IC50 to CDK12 IC50, greater than 1 indicates selectivity for CDK12
Sequence of Human CDK12 wt/CycK (Q9NYV4 whole entry): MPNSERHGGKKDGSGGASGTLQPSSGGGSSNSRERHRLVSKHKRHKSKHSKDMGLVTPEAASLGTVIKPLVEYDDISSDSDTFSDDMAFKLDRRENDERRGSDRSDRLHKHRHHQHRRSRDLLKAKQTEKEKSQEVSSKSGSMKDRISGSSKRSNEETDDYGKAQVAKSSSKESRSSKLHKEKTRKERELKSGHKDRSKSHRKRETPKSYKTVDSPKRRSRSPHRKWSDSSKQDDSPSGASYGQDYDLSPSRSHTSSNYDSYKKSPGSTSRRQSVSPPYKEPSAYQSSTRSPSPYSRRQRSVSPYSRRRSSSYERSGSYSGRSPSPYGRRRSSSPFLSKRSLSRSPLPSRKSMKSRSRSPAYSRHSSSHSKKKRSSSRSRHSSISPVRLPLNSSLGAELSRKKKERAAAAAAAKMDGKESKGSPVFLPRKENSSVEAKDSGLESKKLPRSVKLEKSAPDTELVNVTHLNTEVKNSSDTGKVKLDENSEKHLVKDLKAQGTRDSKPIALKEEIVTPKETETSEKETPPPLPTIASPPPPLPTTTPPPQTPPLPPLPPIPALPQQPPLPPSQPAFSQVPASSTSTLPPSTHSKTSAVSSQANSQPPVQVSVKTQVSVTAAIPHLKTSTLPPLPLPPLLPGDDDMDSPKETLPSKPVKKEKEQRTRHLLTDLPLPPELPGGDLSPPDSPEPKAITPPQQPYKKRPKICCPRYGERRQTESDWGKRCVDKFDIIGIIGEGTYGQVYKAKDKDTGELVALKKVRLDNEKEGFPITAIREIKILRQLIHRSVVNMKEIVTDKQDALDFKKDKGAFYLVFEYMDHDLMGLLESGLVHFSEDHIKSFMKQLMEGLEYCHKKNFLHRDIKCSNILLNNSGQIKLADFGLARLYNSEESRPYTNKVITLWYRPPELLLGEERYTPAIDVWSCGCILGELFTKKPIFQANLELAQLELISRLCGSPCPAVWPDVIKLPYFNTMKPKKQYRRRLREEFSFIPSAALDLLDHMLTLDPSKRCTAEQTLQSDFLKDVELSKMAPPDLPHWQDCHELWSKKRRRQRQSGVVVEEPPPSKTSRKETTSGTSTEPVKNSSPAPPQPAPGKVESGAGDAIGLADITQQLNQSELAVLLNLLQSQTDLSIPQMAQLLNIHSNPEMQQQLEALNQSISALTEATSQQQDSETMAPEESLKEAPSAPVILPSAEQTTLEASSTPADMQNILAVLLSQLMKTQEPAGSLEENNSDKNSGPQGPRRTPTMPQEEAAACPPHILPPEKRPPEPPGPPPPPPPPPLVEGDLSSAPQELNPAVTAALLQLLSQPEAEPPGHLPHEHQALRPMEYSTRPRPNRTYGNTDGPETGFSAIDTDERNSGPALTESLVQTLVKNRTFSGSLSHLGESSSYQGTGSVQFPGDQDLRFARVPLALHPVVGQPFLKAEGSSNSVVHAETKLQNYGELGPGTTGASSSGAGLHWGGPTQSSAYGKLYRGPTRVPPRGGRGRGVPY
Sequence of Human CDK12 wt/CycK (O75909 whole entry partner): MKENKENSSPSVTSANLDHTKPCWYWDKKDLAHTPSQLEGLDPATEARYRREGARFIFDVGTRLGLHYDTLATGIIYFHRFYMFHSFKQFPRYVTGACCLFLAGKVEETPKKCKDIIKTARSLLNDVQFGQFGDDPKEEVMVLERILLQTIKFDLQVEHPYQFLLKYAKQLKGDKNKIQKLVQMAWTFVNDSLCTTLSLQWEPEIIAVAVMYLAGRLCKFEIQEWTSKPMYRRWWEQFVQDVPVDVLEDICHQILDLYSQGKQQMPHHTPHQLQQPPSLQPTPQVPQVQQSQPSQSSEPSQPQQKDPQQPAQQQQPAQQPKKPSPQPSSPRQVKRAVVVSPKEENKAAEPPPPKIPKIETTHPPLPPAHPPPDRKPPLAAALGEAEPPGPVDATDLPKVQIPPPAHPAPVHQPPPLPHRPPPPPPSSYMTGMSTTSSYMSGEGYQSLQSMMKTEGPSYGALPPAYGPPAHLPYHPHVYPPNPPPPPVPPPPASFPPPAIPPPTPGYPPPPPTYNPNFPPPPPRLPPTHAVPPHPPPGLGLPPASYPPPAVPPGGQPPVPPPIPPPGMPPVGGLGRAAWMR
In short: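 Radiometric 33P assay: ATP, test compound (in 10% DMSO) and premixed substrate/enzyme incubated 60 min at 30 °C, stopped with 2% H3PO4. 33Pi incorporation counted by scintillation; least-squares curve fit.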

Human CDK7/CycH/MAT1 = Human CDK7/CycH/MAT1 (Homo sapiens (Human), UniProt P50613); experiment: Radiometric protein kinase assay (33PanQinase Activity Assay), CDK7; type: biochemical; details: ATP 3 μM
Sequence of Human CDK7/CycH/MAT1 (P50613 whole entry): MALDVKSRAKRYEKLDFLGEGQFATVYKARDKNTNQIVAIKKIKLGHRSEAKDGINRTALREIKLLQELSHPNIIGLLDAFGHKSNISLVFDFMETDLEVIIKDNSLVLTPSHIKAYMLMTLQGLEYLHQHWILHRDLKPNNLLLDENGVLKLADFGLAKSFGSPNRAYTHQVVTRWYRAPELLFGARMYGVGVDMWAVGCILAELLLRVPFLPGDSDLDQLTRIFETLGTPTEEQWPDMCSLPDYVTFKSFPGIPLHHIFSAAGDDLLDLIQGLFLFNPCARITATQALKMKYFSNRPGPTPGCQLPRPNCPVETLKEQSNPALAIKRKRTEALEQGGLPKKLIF
Sequence of Human CDK7/CycH/MAT1 (P51946 whole entry partner): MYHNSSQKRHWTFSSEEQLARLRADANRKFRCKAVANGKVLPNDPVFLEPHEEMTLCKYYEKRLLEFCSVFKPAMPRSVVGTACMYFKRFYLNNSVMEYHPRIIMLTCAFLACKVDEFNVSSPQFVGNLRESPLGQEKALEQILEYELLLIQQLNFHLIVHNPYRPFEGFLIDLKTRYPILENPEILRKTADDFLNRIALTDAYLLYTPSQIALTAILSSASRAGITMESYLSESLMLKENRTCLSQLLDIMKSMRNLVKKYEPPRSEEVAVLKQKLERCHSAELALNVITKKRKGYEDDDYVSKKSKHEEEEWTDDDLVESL
Sequence of Human CDK7/CycH/MAT1 (P51948 whole entry partner): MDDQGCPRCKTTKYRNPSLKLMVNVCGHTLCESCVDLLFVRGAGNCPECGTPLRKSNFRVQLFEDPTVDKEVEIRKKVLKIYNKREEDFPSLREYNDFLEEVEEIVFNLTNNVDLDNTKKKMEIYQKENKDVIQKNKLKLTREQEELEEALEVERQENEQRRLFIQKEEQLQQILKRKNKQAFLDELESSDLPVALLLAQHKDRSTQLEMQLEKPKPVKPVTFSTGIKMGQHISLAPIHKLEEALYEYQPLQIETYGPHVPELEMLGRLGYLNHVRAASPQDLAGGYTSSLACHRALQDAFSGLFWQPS

[3] = A673, read-out: Cellular Potency IC50 (nM) (in A673 cells)
[4] = A673 cells, 72 hours, read-out: A673 IC50
[5] = ATP 0.3 μM, read-out: CDK12 IC50
[6] = read-out: CKD12 Biochemical Potency IC50

Row | Compound | IC50 (A673 cells [1]; [3]) [nM] | IC50 (A673 cells [1]; [4]) [nM] | Cyclin K degradation by Western blotting (Cyclin K) | Change of cytotoxic potency in the presence of MLN4924 (A673 cells [2]) | Ratio of Biochemical Potency:Cellular Potency (A673 cells [1]) | IC50 (Human CDK12 wt/CycK; [5]) [nM] | CDK7/CDK12 (Human CDK12 wt/CycK) | IC50 (Human CDK12 wt/CycK; [6]) [nM] | IC50 (Human CDK7/CycH/MAT1) [nM] | Cyclin K Degrader Activity (A673 potency shift + MLN4924) (A673 cells [2])
1 | CC[C@H](CO)Nc1nc(NCc2ccc(-c3ccccn3)cc2)c2ncn(C(C)C)c2n1 [CR8, reference compound] | 84.5 | 84.5 | did cause proteosomal dependent degradation of Cyclin K | a decrease in potency |  |  |  |  |  | 
2 | CCc1cnn2c(NCc3ccc(-c4ccccn4)cc3)cc(NC[C@H]3CCNC[C@@H]3O)nc12 [PPA-005, (3R,4R)-4-(((3-ethyl-7-((4-(pyridin-2-yl)benzyl)amino)pyrazolo[1,5-a]pyrimidin-5-yl)amino)methyl)piperidin-3-ol] | 1.1 | 1.1 | found to degrade Cyclin K | a significant decrease in cytotoxic potency | 30.91 | 34 | 3.3 | 34 | 112 | ++ (>2 and ≤5 fold change.)
3 | O[C@H]1CNCC[C@@H]1CNc1cc(NCc2ccc(-c3ccccn3)cc2)n2ncc(C3CC3)c2n1 [PPA-006] | 3.5 | 3.5 | found to degrade Cyclin K | a significant decrease in cytotoxic potency | 14.57 | 51 | 6.1 | 51 | 312 | +++ (>5 fold change.)
4 | c1cnc(-c2ccc(CNc3cc(N[C@H]4CCCNC4)nc4c(C5CC5)cnn34)cc2)nc1 [PPA-089] | 1.9 | 3.4 |  |  | 14.74 | 28 | 9.8 | 28 | 274 | +++ (>5 fold change.)
5 | c1cnc(-c2ccc(CNc3cc(N[C@H]4CCNC4)nc4c(C5CC5)cnn34)cc2)nc1 [PPA-090] | 4.7 | 5.2 |  |  | 4.89 | 23 | 18.2 | 23 | 418 | +++ (>5 fold change.)
6 | c1cnn(-c2ccc(CNc3cc(N[C@H]4CCNC4)nc4c(C5CC5)cnn34)cc2)c1 [PPA-091] | 7.6 | 10.3 |  |  | 50.26 | 382 | 8.0 | 382 | 3070 | +++ (>5 fold change.)
7 | N#Cc1cnn2c(NCc3ccc(-c4ccccn4)cc3)cc(N[C@H]3CCCNC3)nc12 [PPA-092] | 0.4 | 1 |  |  | 32.50 | 13 | 18.1 | 13 | 235 | +++ (>5 fold change.)
8 | Clc1cnn2c(NCc3ccc(-c4ccccn4)cc3)cc(N[C@H]3CCCNC3)nc12 [PPA-093] | 3.2 | 1.7 |  |  | 9.69 | 31 | 7.2 | 31 | 222 | ++ (>2 and ≤5 fold change.)
9 | CN(C)C/C=C/C(=O)Nc1ccc(C(=O)N2CCC[C@@H](Nc3ncc(Cl)c(-c4c[nH]c5ccccc45)n3)C2)cc1 [THZ-531, reference compound] | 210 |  | no protesomal dependent Cyclin K degradation |  | 0.74 |  |  | 160 |  | − (≤1 fold change.)

Reference: patent publication US20240383900A1, “SUBSTITUTED PYRAZOLO [1,5-A]PYRIMIDINE-7-AMINE COMPOUNDS AS CDK INHIBITORS AND THEIR THERAPEUTIC USE” (Carrick Therapeutics Limited, priority 2021, published 2024)
